According to US10487072B2, “Substituted imidazoles as melanocortin receptor agonists” (MITSUBISHI TANABE PHARMA CORPORATION, priority 2015, dated 2019):
Structures can show the parent of a compound that is named as a salt.

Key:
[1] = biological target: T1, Human MC1R (Homo sapiens, UniProt Q01726); experiment: Human MC1R agonistic activity measurement (cAMP assay) using human melanoma cell line HBL; format: cell-based; conditions: HBL cells; for Emax: 0.5 h, Intrinsic Activity, vehicle cAMP = 0%, αMSH at 10^-6 M = 100%, read-out: Human MC1R IA %; for EC50: intracellular cAMP, 37° C. for 30 minutes
T1 construct: endogenous in cells; host or cells: human melanoma cell line HBL
T1 sequence (Q01726 whole entry): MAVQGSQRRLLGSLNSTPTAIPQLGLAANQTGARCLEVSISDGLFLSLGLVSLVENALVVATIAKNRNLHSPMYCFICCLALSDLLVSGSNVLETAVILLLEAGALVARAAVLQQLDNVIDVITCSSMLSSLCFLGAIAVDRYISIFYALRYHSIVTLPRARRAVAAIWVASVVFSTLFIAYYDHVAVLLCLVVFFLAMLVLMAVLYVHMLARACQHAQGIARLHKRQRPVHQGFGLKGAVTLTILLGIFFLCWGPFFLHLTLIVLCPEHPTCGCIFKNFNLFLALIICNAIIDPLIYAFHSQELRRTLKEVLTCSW
Experimental: (1) Method for Culturing Cells
Human MC1R agonistic activity measurement was carried out by using human melanoma cell line HBL. Culture of HBL: F-10 Nutrient Mixture comprising 10% FCS and Penicillin-streptomycin was used in the culture.
(2) cAMP Assay and Data Calculation
Each compound solution having each concentration was mixed with a cAMP assay buffer (HBSS (Hank's Balanced Salt Solution) comprising 10 mM HEPES and 0.1% BSA), and dispensed into a 96 well plate. HBL was suspended into a cAMP assay buffer comprising 0.5 mM IBMX so that the concentration became 5×10^4/mL, and the resulting suspension was dispensed into the above 96 well plate, then mixed, and left to stand at 37° C. for 30 minutes, and then the intracellular cAMP concentration was measured by a fluorescence method using Envision (ex. 320 nm, em. 590 nm and 665 nm). Each ratio value (665 nm measurement value/590 nm measurement value×10,000) was calculated from the resulting data, and the quantitative value of each cAMP concentration was calculated by using Prism 5.02, and induction % value (% of each sample when the average concentration value of cAMP of vehicle was set to be 0% and the average concentration value of cAMP of αMSH at 10^−6 M was set to be 100%) was calculated, and EC50 value and Intrinsic Activity (IA) % value were calculated.

[2] = biological target: human MC4R (Homo sapiens, UniProt P32245); experiment: human MC4R agonistic activity; format: cell-based
Chain of human MC4R (P32245 whole entry): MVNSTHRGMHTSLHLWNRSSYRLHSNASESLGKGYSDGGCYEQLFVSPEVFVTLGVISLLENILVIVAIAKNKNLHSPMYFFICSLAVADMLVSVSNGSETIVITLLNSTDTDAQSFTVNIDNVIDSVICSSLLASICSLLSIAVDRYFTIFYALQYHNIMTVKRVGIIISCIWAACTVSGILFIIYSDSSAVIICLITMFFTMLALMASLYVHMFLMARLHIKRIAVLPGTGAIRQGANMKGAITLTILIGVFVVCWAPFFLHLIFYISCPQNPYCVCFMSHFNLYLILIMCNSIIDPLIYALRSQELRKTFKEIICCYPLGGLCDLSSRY

Row | Compound | Emax [1] | EC50 [1] | EC50 [2]
1 | CN(C)C(=O)CCCN1CC(c2ccc(F)cc2F)C(C(=O)Nc2nccn2Cc2ccc(C(F)(F)F)cc2N2CCC(C(=O)O)CC2)(C(F)(F)F)C1 (stereo not drawn) [Example 28] | 91% | 25 nM | –
2 | Cc1ccc(Cn2ccnc2NC(=O)[C@@H]2CN(C(C)(C)C)C[C@H]2c2ccc(F)cc2F)c(N2CCC(C(=O)NS(=O)(=O)N(C)C)CC2)c1 [Example 85, 1-(2-{[2-({[(3S,4R)-1-tert-butyl-4-(2,4-difluorophenyl)pyrrolidin-3-yl]carbonyl}amino)-1H-imidazol-1-yl]methyl}-5-methylphenyl)-N-(dimethylsulfamoyl)piperidine-4-carboxamide trihydrochloride] | 98% | 16 nM | –
3 | Cc1ccc(Cn2ccnc2NC(=O)[C@@H]2CN(CC[C@H]3Cc4ccccc4CN3)C[C@H]2c2ccc(F)cc2F)c(N2CCC(C(=O)O)CC2)c1 [Example 32, 1-(2-{[2-({[(3S,4R)-4-(2,4-difluorophenyl)-1-{2-[(3R)-1,2,3,4-tetrahydroisoquinolin-3-yl]ethyl}pyrrolidin-3-yl]carbonyl}amino)-1H-imidazol-1-yl]methyl}-5-methylphenyl)piperidine-4-carboxylic acid tetrahydrochloride] | – | 2.8 nM | 557 nM
4 | O=C(O)C1CCN(c2cc(C(F)(F)F)ccc2Cn2ccnc2NC(=O)[C@]2(F)CN(CCCS(=O)(=O)N3CCCC3)C[C@H]2c2ccc(F)cc2F)CC1 [Example 26, 1-[2-({2-[({(3R,4R)-4-(2,4-difluorophenyl)-3-fluoro-1-[3-(pyrrolidin-1-ylsulfonyl)propyl]pyrrolidin-3-yl}carbonyl)amino]-1H-imidazol-1-yl}methyl)-5-(trifluoromethyl)phenyl]piperidine-4-carboxylic acid] | 97% | 7.6 nM | –
5 | Cc1ccc(Cn2ccnc2NC(=O)[C@@H]2CN(C3(C)CCN(CCO)CC3)C[C@H]2c2ccc(F)cc2F)c(N2CCOCC2)c1 [Example 64, (3S,4R)-4-(2,4-difluorophenyl)-1-[1-(2-hydroxyethyl)-4-methylpiperidin-4-yl]-N-{1-[4-methyl-2-(morpholin-4-yl)benzyl]-1H-imidazol-2-yl}pyrrolidine-3-carboxamide] | 79% | 2.3 nM | –
6 | CC(C)c1ccc(Cn2ccnc2NC(=O)[C@]2(F)CN(C(C)(C)C)C[C@H]2c2ccc(F)cc2)c(N2CCC(C(=O)O)CC2)c1 [Example 49, 1-[2-{[2-({[(3R,4R)-1-tert-butyl-3-fluoro-4-(4-fluorophenyl)pyrrolidin-3-yl]carbonyl}amino)-1H-imidazol-1-yl]methyl}-5-(propan-2-yl)phenyl]piperidine-4-carboxylic acid] | 96% | 2 nM | –
7 | CC(C)(C)N1C[C@@H](C(=O)Nc2nccn2CC2(N3CCOCC3)CCCCC2)[C@H](c2ccc(F)cc2F)C1 [Example 70] | 58% | 83 nM | –
8 | COC(C)(C)CCCN1C[C@@H](c2ccc(F)cc2F)[C@](F)(C(=O)Nc2nccn2Cc2ccc(C(F)(F)F)cc2N2CCC(C(=O)O)CC2)C1 [Example 19, 1-[2-{[2-({[(3R,4R)-4-(2,4-difluorophenyl)-3-fluoro-1-(4-methoxy-4-methylpentyl)pyrrolidin-3-yl]carbonyl}amino)-1H-imidazol-1-yl]methyl}-5-(trifluoromethyl)phenyl]piperidine-4-carboxylic acid] | 83% | 3.5 nM | –
9 | O=C(O)C1CCN(c2cc(C(F)(F)F)ccc2Cn2ccnc2NC(=O)[C@]2(F)CN(C3CCCC3)C[C@H]2c2ccc(F)cc2F)CC1 [Example 16, 1-[2-{[2-({[(3R,4R)-1-cyclopentyl-4-(2,4-difluorophenyl)-3-fluoropyrrolidin-3-yl]carbonyl}amino)-1H-imidazol-1-yl]methyl}-5-(trifluoromethyl)phenyl]piperidin-4-carboxylic acid] | 88% | 6.7 nM | –
10 | COc1ccc([C@@H]2CN(C(C)(C)C)C[C@@]2(F)C(=O)Nc2nccn2Cc2ccc(C(F)(F)F)cc2N2CCC(C(=O)O)CC2)cc1 [Example 52, 1-[2-{[2-({[(3R,4R)-1-tert-butyl-3-fluoro-4-(4-methoxyphenyl)pyrrolidin-3-yl]carbonyl}amino)-1H-imidazol-1-yl]methyl}-5-(trifluoromethyl)phenyl]piperidine-4-carboxylic acid] | 118% | 1.6 nM | –
11 | COc1ccc([C@@H]2CN(C(C)(C)C)C[C@@]2(F)C(=O)Nc2nccn2Cc2ccc(C(C)C)cc2N2CCC(C(=O)O)CC2)cc1 [Example 54, 1-[2-{[2-({[(3R,4R)-1-tert-butyl-3-fluoro-4-(4-methoxyphenyl)pyrrolidin-3-yl]carbonyl}amino)-1H-imidazol-1-yl]methyl}-5-(propan-2-yl)phenyl]piperidine-4-carboxylic acid] | 109% | 2.8 nM | –
12 | CC(C)(C)N1C[C@@H](c2ccc(F)cc2)[C@](F)(C(=O)Nc2nccn2Cc2ccc(C(F)(F)F)cc2N2CCC(C(=O)O)CC2)C1 [Example 43, 1-[2-{[2-({[(3R,4R)-1-tert-butyl-3-fluoro-4-(4-fluorophenyl)pyrrolidin-3-yl]carbonyl}amino)-1H-imidazol-1-yl]methyl}-5-(trifluoromethyl)phenyl]piperidine-4-carboxylic acid] | 108% | 6 nM | –
13 | Cc1ccc(Cn2ccnc2NC(=O)[C@@H]2CN(c3ccnc(C)c3)C[C@H]2c2ccc(F)cc2F)c(N2CCOCC2)c1 [Example 72] | 66% | 20 nM | –
14 | COC(C)(C)CCCN1C[C@@H](c2ccc(F)cc2F)[C@](F)(C(=O)Nc2nccn2Cc2ccc(C)cc2N2CCC(C(=O)O)CC2)C1 [Example 13, 1-(2-{[2-({[(3R,4R)-4-(2,4-difluorophenyl)-3-fluoro-1-(4-methoxy-4-methylpentyl)pyrrolidin-3-yl]carbonyl}amino)-1H-imidazol-1-yl]methyl}-5-methylphenyl)piperidine-4-carboxylic acid] | 89% | 22 nM | –
15 | CC(C)(C)N1C[C@@H](c2ccc(F)cn2)[C@](F)(C(=O)Nc2nccn2Cc2ccc(C(F)(F)F)nc2N2CCOCC2)C1 [Example 80] | 76% | 68 nM | –
